Data taken from US6914045B2, “Glycopeptide antibiotics” (Wyeth Holdings Corporation, priority 2001, dated 2005).

What follows are compounds tested on Staphylococcus aureus (assay: zone of inhibition, agar well assay plate). Settings: 25 μl of extract per 5 mm well, incubated overnight at 37° C.
Type: cell-based
Description: Protocol for Assay Plate Staphylococcus aureus
Inoculate 10 mL of Tryptic Soy Broth with a loopful of slant culture, Staphylococcus aureus, and place in a stationary rack at 37° C. After 16-18 hour incubation, the Optical Density (OD) of the culture is read@A600 nm, using a 1:10 dilution. OD should be between 0.1-0.3, and if not adjust with Tryptic Soy Broth. A 40 mL sample of Nutrient Agar, pH 6.8 is inoculated with 90 ul of S. aureus culture and poured into a sterile petri dish. When the agar has solidified, wells (5 mm) are plated using an automated welling device. Wells are inoculated with 25 μl of extract and incubated overnight at 37° C. Zones of inhibition are measured and recorded the following morning.

Going from `CC(C)CCC(=O)OC1C(CO)OC(OC2C(CO)OC(Oc3ccc(CC4NC(=O)C(C(C)c5ccccc5)NC(=O)CNC(=O)C(CO)NC(=O)C(C(O)C5CNC(=N)N5C5OC(CO)C(O)C(O)C5O)NC(=O)C(C(O)C5CNC(=N)N5)NC4=O)cc3)C(O)C2O)C(O)C1O` (stereo not drawn) [Example 270c, Cyclo[glycyl-β-methylphenylalanyl-O-[4-O-[4-O-(4-methylpentanoyl)hexopyranosyl]-hexopyranosyl]tyrosyl-3-(2-iminoimidazolidin-4-yl)seryl-3-(3-hexopyranosyl-2-iminoimidazolidin-4-yl)serylseryl]] to `CCCC(=O)OC1C(O)C(CO)OC(OC2C(CO)OC(Oc3ccc(CC4NC(=O)C(C(C)c5ccccc5)NC(=O)CNC(=O)C(CO)NC(=O)C(C(O)C5CNC(=N)N5C5OC(CO)C(O)C(O)C5O)NC(=O)C(C(O)C5CNC(=N)N5)NC4=O)cc3)C(O)C2O)C1O` (stereo not drawn) [Example 272b, Cyclo[glycyl-β-methylphenylalanyl-O-[4-O-(3-O-butanoyl-hexopyranosyl)-hexopyranosyl]tyrosyl-3-(2-iminoimidazolidin-4-yl)seryl-3-(3-hexopyranosyl-2-iminoimidazolidin-4-yl)serylseryl]], the “Zone of Inhibition vs. S. aureus” value falls from 11 mm to 8 mm.

For `CCCCCCC(=O)OC1C(O)C(CO)OC(OC2C(CO)OC(Oc3ccc(CC4NC(=O)C(C(C)c5ccccc5)NC(=O)CNC(=O)C(CO)NC(=O)C(C(O)C5CNC(=N)N5C5OC(CO)C(O)C(O)C5O)NC(=O)C(C(O)C5CNC(=N)N5)NC4=O)cc3)C(O)C2O)C1O` (stereo not drawn) [Example 274b, Cyclo[glycyl-β-methylphenylalanyl-O-[4-O-(3-O-heptanoyl-hexopyranosyl)-hexopyranosyl]tyrosyl-3-(2-iminoimidazolidin-4-yl)seryl-3-(3-hexopyranosyl-2-iminoimidazolidin-4-yl)serylseryl]], the “Zone of Inhibition vs. S. aureus” value was 10 mm.
